Source: US10940139B2, “Compounds that interact with the Ras superfamily for the treatment of cancers, inflammatory diseases, rasopathies, and fibrotic disease” (Shy Therapeutics LLC, priority 2017, dated 2021)
Read-outs that look alike come from different tables or passages of the source.

Assays:
Assay in all cases: Ras GTP binding domain inhibition assay (labeled GTP)
KRas G12D mutant protein = KRas G12D mutant protein (Homo sapiens (Human), UniProt P01116, G12D); conditions: 20 μM compound; KRas G12D; read-out: % Inhibition at 20 μM of K-Ras mutant and wild-type protein, KRas G12D
KRas G12C mutant = KRas G12C mutant (Homo sapiens (Human), UniProt P01116, G12C); conditions: 20 μM compound; KRas G12C; read-out: % Inhibition at 20 μM of K-Ras mutant and wild-type protein, KRas G12C
In short: (§1)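 Inhibition of labeled GTP binding is measured on immobilized His-KRas protein in Tris buffer pH 7.5 with 1 mM MgCl2 and 1 mM DTT.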

KRas wild type = KRas wild type (Homo sapiens (Human), UniProt P01116); conditions: 20 μM compound; KRas wild type; read-out: % Inhibition at 20 μM of K-Ras mutant and wild-type protein, KRas wild type
In short: as §1

[1] = biological target: KRas G12C/Q61H double mutant (Homo sapiens (Human), UniProt P01116, G12C/Q61H); conditions: 20 μM compound
In short: as §1

[2] = biological target: KRas G12D/Q61H double mutant (Homo sapiens (Human), UniProt P01116, G12D/Q61H); conditions: for inhibition at 20 µM: 20 μM compound; for IC50: serial dilution, read-out: KRas G12D Q61H (classes E-H, IC50)
In short: as §1

KRas Q61H mutant = KRas Q61H mutant (Homo sapiens (Human), UniProt P01116, Q61H); conditions: 20 μM compound
In short: as §1

[3] = read-out: % Inhibition at 20 μM KRas G12C Q61H
[4] = read-out: % Inhibition at 20 μM KRas G12D Q61H
[5] = read-out: % Inhibition at 20 μM KRas Q61H
[6] = KRas G12C/Q61H double mutant, read-out: % Inhibition at 20 μM of K-Ras mutant and wild-type protein, KRas G12C Q61H
[7] = KRas G12D/Q61H double mutant, read-out: % Inhibition at 20 μM of K-Ras mutant and wild-type protein, KRas G12D Q61H
[8] = KRas Q61H, read-out: % Inhibition at 20 μM of K-Ras mutant and wild-type protein, KRas Q61H

Chain of KRas G12C mutant (P01116-2 other isoform, or with tags, fused parts or gaps G12C): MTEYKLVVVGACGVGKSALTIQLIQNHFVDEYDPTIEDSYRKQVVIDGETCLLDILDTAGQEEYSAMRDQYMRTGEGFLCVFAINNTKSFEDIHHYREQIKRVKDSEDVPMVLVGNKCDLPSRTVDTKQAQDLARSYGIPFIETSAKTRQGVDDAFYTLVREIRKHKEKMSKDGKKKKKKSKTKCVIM
Chain of KRas G12D/Q61H double mutant (P01116-2 other isoform, or with tags, fused parts or gaps G12D/Q61H): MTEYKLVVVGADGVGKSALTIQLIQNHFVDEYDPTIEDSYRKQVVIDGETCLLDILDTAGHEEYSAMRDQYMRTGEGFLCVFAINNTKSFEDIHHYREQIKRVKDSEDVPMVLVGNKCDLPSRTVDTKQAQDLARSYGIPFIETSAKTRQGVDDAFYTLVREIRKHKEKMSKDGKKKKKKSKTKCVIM
Chain of KRas G12D mutant protein (P01116-2 other isoform, or with tags, fused parts or gaps G12D): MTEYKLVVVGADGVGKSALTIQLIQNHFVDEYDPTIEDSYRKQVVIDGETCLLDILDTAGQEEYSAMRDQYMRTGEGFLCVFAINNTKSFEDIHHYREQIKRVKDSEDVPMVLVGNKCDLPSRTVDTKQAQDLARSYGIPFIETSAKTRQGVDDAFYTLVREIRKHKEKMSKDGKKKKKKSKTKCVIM
Chain of KRas Q61H mutant (P01116-2 other isoform, or with tags, fused parts or gaps Q61H): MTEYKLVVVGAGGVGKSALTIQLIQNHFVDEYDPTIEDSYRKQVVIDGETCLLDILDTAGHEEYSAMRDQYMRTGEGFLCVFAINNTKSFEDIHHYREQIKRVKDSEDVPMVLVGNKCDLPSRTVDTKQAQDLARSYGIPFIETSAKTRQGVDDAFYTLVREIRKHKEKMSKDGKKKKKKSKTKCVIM
Chain of KRas wild type (P01116-2 other isoform, or with tags, fused parts or gaps): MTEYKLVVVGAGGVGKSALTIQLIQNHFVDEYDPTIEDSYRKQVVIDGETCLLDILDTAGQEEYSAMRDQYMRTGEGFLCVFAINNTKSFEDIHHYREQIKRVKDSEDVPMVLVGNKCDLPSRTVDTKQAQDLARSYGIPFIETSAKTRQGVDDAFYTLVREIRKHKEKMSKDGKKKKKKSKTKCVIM
Chain of KRas G12C/Q61H double mutant (P01116-2 other isoform, or with tags, fused parts or gaps G12C/Q61H): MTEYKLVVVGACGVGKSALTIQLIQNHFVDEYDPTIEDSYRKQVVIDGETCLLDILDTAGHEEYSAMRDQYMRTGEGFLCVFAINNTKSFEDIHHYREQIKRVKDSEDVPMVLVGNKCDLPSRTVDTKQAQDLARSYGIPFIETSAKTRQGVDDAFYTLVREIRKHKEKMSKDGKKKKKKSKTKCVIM

Row | SMILES | inhibition at 20 µM [1, 3] | inhibition at 20 µM [2, 4] | inhibition at 20 µM (KRas Q61H mutant; [5]) | other results
1 | COCCNc1nc(-c2ccccn2)nc2sc(-c3ccccc3)c(-c3ccccn3)c12 [drawing 3620] | – | – | – | inhibition at 20 µM (KRas G12D mutant protein): 1 to 25%; inhibition at 20 µM (KRas G12C mutant): 1 to 25%; inhibition at 20 µM (KRas wild type): 0%
2 | COCCNc1nc(-c2nccn2C)nc2sc(-c3ccccc3)c(-c3ccc(OC)cc3)c12 [drawing 3589] | – | – | – | inhibition at 20 µM (KRas G12D mutant protein): 25 to 50%; inhibition at 20 µM (KRas G12C mutant): 25 to 50%; inhibition at 20 µM (KRas wild type): 25 to 50%
3 | Cn1ccnc1-c1nc(O)c2sc(-c3ccccc3)c(-c3ccccc3)c2n1 [drawing 3588] | – | – | – | inhibition at 20 µM (KRas G12D mutant protein): 0%; inhibition at 20 µM (KRas G12C mutant): 0%; inhibition at 20 µM (KRas wild type): 1 to 25%
4 | CC(CO)Nc1nc(-c2nccn2C)nc2sc(-c3ccccc3)c(-c3ccccc3)c12 (stereo not shown) [drawing 3578] | – | – | – | inhibition at 20 µM (KRas G12D mutant protein): 1 to 25%; inhibition at 20 µM (KRas G12C mutant): 25 to 50%; inhibition at 20 µM (KRas wild type): 0%
5 | COc1cnc(CNC(=O)c2c(C)sc3c(O)nc(-c4ccccn4)nc23)[nH]c1=O [drawing 3523] | – | – | – | inhibition at 20 µM [1, 6]: 1 to 25%; inhibition at 20 µM [2, 7]: 0%; inhibition at 20 µM (KRas Q61H mutant; [8]): 0%
6 | Oc1nc(-c2ccccn2)nc2c(-c3ccc(OC4CCCCC4)cc3)csc12 [drawing 2887] | 25 to 50% | 25 to 50% | 25 to 50% | –
7 | Oc1nc(-c2ccccn2)nc2c(CC3CNC3)csc12 [drawing 3519] | – | – | – | inhibition at 20 µM [1, 6]: 51 to 75%; inhibition at 20 µM [2, 7]: 25 to 50%; inhibition at 20 µM (KRas Q61H mutant; [8]): 51 to 75%
8 | Oc1nc(-c2ccccn2)nc2c(-c3cncc(C(F)(F)F)c3)csc12 [drawing 3466] | – | – | – | inhibition at 20 µM [1, 6]: 0%; inhibition at 20 µM [2, 7]: 1 to 25%; inhibition at 20 µM (KRas Q61H mutant; [8]): 1 to 25%
9 | Oc1nc(-c2ccccn2)nc2c(-c3ccccc3)csc12 [drawing 2694] | 25 to 50% | 25 to 50% | 51 to 75% | –
10 | COc1cnc(CNC(=O)c2csc3c(O)nc(-c4ccccn4)nc23)[nH]c1=O [drawing 3520] | – | – | – | inhibition at 20 µM [1, 6]: 25 to 50%; inhibition at 20 µM [2, 7]: 1 to 25%; inhibition at 20 µM (KRas Q61H mutant; [8]): 0%
11 | COc1ccnc(-c2nc(O)c3c(Br)csc3n2)c1 [drawing 2742] | 1 to 25% | 25 to 50% | 25 to 50% | –
12 | Cc1c(Br)sc2c(O)nc(-c3ccccn3)nc12 [drawing 3474] | – | – | – | inhibition at 20 µM [1, 6]: 25 to 50%; inhibition at 20 µM [2, 7]: 25 to 50%; inhibition at 20 µM (KRas Q61H mutant; [8]): 51 to 75%
13 | Oc1nc(-c2ccccn2)nc2c(-c3ccc(Cl)c(Cl)c3)csc12 [drawing 3463] | – | – | – | inhibition at 20 µM [1, 6]: 1 to 25%; inhibition at 20 µM [2, 7]: 25 to 50%; inhibition at 20 µM (KRas Q61H mutant; [8]): 25 to 50%
14 | COc1ccccc1C1CN(C(=O)c2csc3c(O)nc(-c4ccccn4)nc23)CCO1 (stereo not shown) [drawing 2767] | 51 to 75% | 51 to 75% | 76 to 100% | IC50 [2]: 11 to 30 µM
15 | COc1cnc(C(C)(C)N)nc1O [drawing 3491] | – | – | – | inhibition at 20 µM [1, 6]: 1 to 25%; inhibition at 20 µM [2, 7]: 1 to 25%; inhibition at 20 µM (KRas Q61H mutant; [8]): 0%
16 | O=C(c1csc2c(O)nc(-c3ccccn3)nc12)N1CCN(c2ccc(O)c(Cl)c2)CC1 [drawing 2803] | 51 to 75% | 51 to 75% | 51 to 75% | IC50 [2]: 11 to 30 µM
17 | Cc1sc2c(O)nc(-c3ccccn3)nc2c1C(=O)N1CCN(c2ccccc2)CC1 [drawing 3508] | – | – | – | inhibition at 20 µM [1, 6]: 51 to 75%; inhibition at 20 µM [2, 7]: 25 to 50%; inhibition at 20 µM (KRas Q61H mutant; [8]): 51 to 75%
18 | CC(C)(C)c1sc2c(O)nc(-c3ccccn3)nc2c1Br [drawing 3554] | – | – | – | inhibition at 20 µM [1, 6]: 25 to 50%; inhibition at 20 µM [2, 7]: 25 to 50%; inhibition at 20 µM (KRas Q61H mutant; [8]): 51 to 75%
19 | CC(c1ccccc1)N1CCN(C(=O)c2csc3c(O)nc(-c4ccccn4)nc23)CC1 (stereo not shown) [drawing 2804] | 51 to 75% | 51 to 75% | 76 to 100% | IC50 [2]: 11 to 30 µM
20 | Cc1cncc(-c2csc3c(O)nc(-c4ccccn4)nc23)c1 [drawing 3467] | – | – | – | inhibition at 20 µM [1, 6]: 25 to 50%; inhibition at 20 µM [2, 7]: 25 to 50%; inhibition at 20 µM (KRas Q61H mutant; [8]): 25 to 50%
21 | Oc1nc(-c2ccccn2)nc2cc(-c3cccc(Br)c3)sc12 [drawing 3564] | – | – | – | inhibition at 20 µM [1, 6]: 1 to 25%; inhibition at 20 µM [2, 7]: 25 to 50%; inhibition at 20 µM (KRas Q61H mutant; [8]): 25 to 50%
22 | Cc1sc2c(O)nc(-c3ccccn3)nc2c1Br [drawing 3522] | – | – | – | inhibition at 20 µM [1, 6]: 25 to 50%; inhibition at 20 µM [2, 7]: 25 to 50%; inhibition at 20 µM (KRas Q61H mutant; [8]): 1 to 25%

Now from value to molecule, other results behind:

Row | inhibition at 20 µM [1, 3] | inhibition at 20 µM [2, 4] | inhibition at 20 µM (KRas Q61H mutant; [5]) | SMILES | other results
23 | 51 to 75% | 25 to 50% | 51 to 75% | COc1ccc(N2CCN(C(=O)c3csc4c(O)nc(-c5ccccn5)nc34)CC2)c(OC)c1 [drawing 2759] | –
24 | 51 to 75% | 25 to 50% | 51 to 75% | Cc1ccccc1N1CCN(C(=O)c2csc3c(O)nc(-c4ccccn4)nc23)CC1 [drawing 2723] | –
25 | 25 to 50% | 1 to 25% | 25 to 50% | N#Cc1cccc(CCNC(=O)c2csc3nc(-c4ccccn4)nc(N4CCOCC4)c23)c1 [drawing 2787] | –
26 | 1 to 25% | 25 to 50% | 25 to 50% | Nc1nc(-c2ccccn2)nc2c(Br)csc12 [drawing 2892] | –
27 | 76 to 100% | 1 to 25% | 76 to 100% | O=C(c1csc2c(O)nc(-c3ccccn3)nc12)N1CCNC(c2ccc(F)cc2)C1 (stereo not shown) [drawing 2807] | –
28 | 1 to 25% | 1 to 25% | 1 to 25% | N#Cc1ccc(CCNC(=O)c2csc3nc(-c4ccccn4)nc(N4CCOCC4)c23)cc1 [drawing 2750] | –
29 | 25 to 50% | 1 to 25% | 51 to 75% | COCCCCN(C)C(=O)c1csc2nc(-c3ccccn3)nc(N3CCOCC3)c12 [drawing 2790] | –
30 | 51 to 75% | 1 to 25% | 51 to 75% | CN(CCc1cccc(C#N)c1)C(=O)c1csc2nc(-c3ccccn3)nc(N3CCOCC3)c12 [drawing 2788] | –
31 | 1 to 25% | 1 to 25% | 1 to 25% | COCCCCNC(=O)c1csc2nc(-c3ccccn3)nc(N3CCS(=O)(=O)CC3)c12 [drawing 2826] | –
32 | 25 to 50% | 1 to 25% | 25 to 50% | COc1nccc(CCNC(=O)c2csc3nc(-c4ccccn4)nc(N4CCOCC4)c23)n1 [drawing 2897] | –
33 | 51 to 75% | 1 to 25% | 51 to 75% | Cn1cc(C2CN(C(=O)c3csc4c(O)nc(-c5ccccn5)nc34)CCN2)cn1 (stereo not shown) [drawing 2777] | –
34 | 25 to 50% | 1 to 25% | 25 to 50% | CNS(=O)(=O)CCCNC(=O)c1csc2nc(-c3ccccn3)nc(N3CCOCC3)c12 [drawing 2791] | –
35 | 25 to 50% | 1 to 25% | 25 to 50% | COc1cc(CCNC(=O)c2csc3nc(-c4ccccn4)nc(N4CCOCC4)c23)ccn1 [drawing 2747] | –
36 | 51 to 75% | 51 to 75% | 51 to 75% | O=C(c1csc2c(O)nc(-c3ccccn3)nc12)N1CCNC(Cc2cccc(F)c2)C1 (stereo not shown) [drawing 2832] | –
37 | 25 to 50% | 25 to 50% | 25 to 50% | Oc1nc(-c2ccccn2)nc2c(-c3ccc(CN4CCOCC4)cc3)csc12 [drawing 2882] | –
38 | 51 to 75% | 51 to 75% | 51 to 75% | COC(=O)c1cc2nc(-c3ccccn3)nc(O)c2s1 [drawing 2907] | IC50 [2]: > 30 µM
39 | 76 to 100% | 25 to 50% | 76 to 100% | O=C(c1csc2c(O)nc(-c3ccccn3)nc12)N1CCN(Cc2ccc(O)c(Cl)c2)CC1 [drawing 2765] | –
40 | 25 to 50% | 51 to 75% | 25 to 50% | O=C(c1csc2c(O)nc(-c3ccccn3)nc12)N1CCN(c2ccc(F)cc2F)CC1 [drawing 2760] | –
41 | 25 to 50% | 1 to 25% | 25 to 50% | O=C(NCCc1cncnc1)c1csc2nc(-c3ccccn3)nc(N3CCOCC3)c12 [drawing 2784] | –
42 | 51 to 75% | 0% | 51 to 75% | O=C(NCCc1ccncc1)c1csc2nc(-c3ccccn3)nc(N3CCOCC3)c12 [drawing 2779] | –
43 | 51 to 75% | 25 to 50% | 76 to 100% | O=C(c1csc2c(O)nc(-c3ccccn3)nc12)N1CCN(Cc2ccccc2)CC1 [drawing 2762] | –
44 | 25 to 50% | 1 to 25% | 25 to 50% | O=C(NCCc1cncs1)c1csc2nc(-c3ccccn3)nc(N3CCOCC3)c12 [drawing 2749] | –
45 | 25 to 50% | 0% | 25 to 50% | COc1ccc(CCN(C)C(=O)c2csc3nc(-c4ccccn4)nc(N4CCOCC4)c23)cn1 [drawing 2746] | –
